Reference: PMC1933457, “Nitroimidazole Action in Entamoeba histolytica: A Central Role for Thioredoxin Reductase” (PLoS Biology, 2007)

Columns and labels:
recEh Trx = target: T1, recEh Trx (Entamoeba histolytica, UniProt C4LYR0); experiment: intact-protein LC-ESI-QTOF-MS after expression with drug; format: cell-based; conditions: covalent; reduced metabolite; drug present during expression in E. coli
T1 construct: gene EHI_004490; C-terminal His6 tag, Met1 removed, one disulfide, 12,322 Da; pET17b, E. coli BL21(DE3), Ni-NTA
T1 sequence (C4LYR0 2-103): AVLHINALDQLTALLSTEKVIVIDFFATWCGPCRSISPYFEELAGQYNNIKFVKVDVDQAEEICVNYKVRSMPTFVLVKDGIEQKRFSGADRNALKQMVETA

recEh TrxR = target: T2, recEh TrxR (Entamoeba histolytica, UniProt C4LW95); experiment: as above; format: cell-based; conditions: covalent; reduced metabolite; drug present during expression in E. coli
T2 construct: gene EHI_155440; C-terminal His6 tag, pET17b, E. coli BL21(DE3), Ni-NTA; C-terminal native peptide 292-314
T2 sequence (C4LW95 1-314): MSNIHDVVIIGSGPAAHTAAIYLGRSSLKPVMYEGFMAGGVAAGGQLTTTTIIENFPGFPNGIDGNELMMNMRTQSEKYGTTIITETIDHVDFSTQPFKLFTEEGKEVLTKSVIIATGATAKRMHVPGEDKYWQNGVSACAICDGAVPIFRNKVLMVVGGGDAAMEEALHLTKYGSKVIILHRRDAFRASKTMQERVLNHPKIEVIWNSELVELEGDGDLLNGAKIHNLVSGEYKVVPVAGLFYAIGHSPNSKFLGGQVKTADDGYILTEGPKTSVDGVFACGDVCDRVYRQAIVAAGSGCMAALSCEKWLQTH

In the case of tinidazole [compound 2], the mass increment (recEh Trx) is reported as 217 Da and the mass increment (recEh TrxR) is reported as 217 Da.
